Entries after “also recorded” stand apart in the source; their conditions may differ.
Assays:
human naïve CD4 T cells [1] = experiment: CCR7 expression by FACS on in vitro differentiated cells; type: cell-based; conditions: for CCR7 downregulation (CCR7+CXCR5+ cells): with or without IL-12 (FIG. 10); for CCR7 expression (MFI): activated CD4 T cells, day 5
Method: (§1) For surface staining, primary-staining panels used for phenotypic analysis or for cell sorting known in the art were used. For the intranuclear staining: cells were treated with the FoxP3 Fixation/Permeabilization kit (eBioscience) and stained in Permeabilization buffer (eBioscience). For cytokine staining: day 3 or day 5 in vitro differentiated cells (specified in the main text or in figure legends) cells were stimulated for 5 hours at 37° C. with Phorbol 12-myristate 13-acetate (PMA, 25 ng/ml) and Ionomycin (1 μg/ml) in the presence of Brefeldin A (5 μg/ml). Cells were fixed with PBS 2% FBS, 1% PFA and permeabilized with PBS 2% FBS, 0.5% Saponin (from quillaja bark, Sigma-Aldrich). Samples were analyzed on a LSR Fortessa Cell Analyzer (BD, Bioscience). Flow cytometry data were analyzed with FlowJo (Tree Star). For cell sorting, cells were sorted using sorted using a FACS Aria (BD, Bioscience).
(§2) Unless differently specified, naïve CD4^+ T cells were enriched from PBMCs by magnetic bead negative selection with the Naïve CD4^+ T Cell Isolation Kit (Stem Cell Technologies). Purity (CD4^+CD45RA^+) was 90% or higher. Cells (7.5×10^4 cells/well) were activated by Dynabeads Human T-Activator CD3/CD28 (2 μl/well, Life Technologies) and cultured with recombinant human/mouse/rat activin A (50 ng/ml or 100 ng/ml), recombinant human IL-12 (5 ng/ml), recombinant human TGFβ (1 ng/ml), recombinant human IL-23 (10 ng/ml) or recombinant human IL-35 (10 ng/ml) in the presence of and recombinant human IL-7 (4 ng/ml) in AIM-V medium (Life Technologies). All cytokines were from R&D System and Peprotech. The 14 kDa mature human beta A chain of human activin A shares 100% amino acid sequence identity with bovine, feline, mouse, porcine, and rat beta A. Phenotype was quantified after 3 or 5 days, as specified in the main text of Figure legends. Similar results were obtained when using Treg-depleted FACS sorted naïve CD4 T cells, in which cells were sorted from total PBMCs by flow cytometry as CD19^−CD8^−CD14^−CD16^− CD4^+CD45RO^−CD25^− cells. For experiments quantifying supernatant CXCL13 concentration, cells were activated by plate-bound anti-human CD3 (5 μg/ml, BD) and ICOS-L (5 μg/ml, recombinant human B7-H2, R&D). CXCL13 concentrations were determined via human CXCL13 DuoSet ELISA (R&D) on supernatants harvested after 5 days of in vitro culture. For blocking experiments, cells were cultured with anti-activin A blocking mAb (5 μg/ml, clone 69403, R&D), anti-TGFβ mAb (100 μg/ml, clone 1D11.16.8, BioXcell), or equivalent concentration of mouse IgG1 isotype mAb (BioXcell). For blockade of IL-2, cells were cultured with anti-IL-2 blocking mAb (10 μg/ml, clone 5334, R&D) or mouse IgG1 isotype mAb (BioXcell).

human naïve CD4 T cells [2] = experiment: FoxP3 induction by FACS in in vitro differentiated cells; type: cell-based; conditions: for FoxP3 expression (FoxP3+ cells): with or without IL-12, day 5
Method: as §1
Unless differently specified, naïve CD4^+ T cells were enriched from PBMCs by magnetic bead negative selection with the Naïve CD4^+ T Cell Isolation Kit (Stem Cell Technologies). Purity (CD4^+CD45RA^+) was 90% or higher. […] The 14 kDa mature human beta A chain of human activin A shares 100% amino acid sequence identity with bovine, feline, mouse, porcine, and rat beta A. Phenotype was quantified after 3 or 5 days, as specified in the main text of Figure legends. […] For experiments quantifying supernatant CXCL13 concentration, cells were activated by plate-bound anti-human CD3 (5 μg/ml, BD) and ICOS-L (5 μg/ml, recombinant human B7-H2, R&D). CXCL13 concentrations were determined via human CXCL13 DuoSet ELISA (R&D) on supernatants harvested after 5 days of in vitro culture. […]

human naïve CD4 T cells [3] = experiment: In vitro Tfh differentiation, PD-1 and CXCR5 expression by FACS; type: cell-based
Method: as §1, §2

human naïve CD4 T cells [4] = experiment: BCL6 intranuclear expression by FACS on in vitro differentiated cells; type: cell-based; conditions: for induction of Bcl6+CXCR5+ cells: titration with or without IL-12 (FIG. 11)
Method: as §1, §2

human naïve CD4 T cells [5] = experiment: Intracellular cytokine staining after PMA/Ionomycin restimulation; type: cell-based
Method: as §1

[6] = system: rhesus macaque naïve CD4 T cells; experiment: Non-human primate (NHP) differentiation; type: cell-based, macaca mulatta (rhesus macaques); conditions: 5 days
Method: CD4^+ T cells from rhesus macaque PBMCs were enriched using the Non-Human Primate CD4^+ T Cell Isolation Kit (Miltenyi Biotec). Naïve CD4^+ T cells were isolated by FACS sorting as CD4^+CD45RA^+CD95^−CD28^+CCR7^+ cells. Naïve CD4^+ T cells (7.5×10^4 cells/well) were activated by plate-bound anti-human-CD3 and anti-human-CD28 (both at 5 μg/ml, BD) and cultured with recombinant human/mouse/rat activin A (50 ng/ml) and/or recombinant human IL-12 (5 ng/ml) for 5 days. Phenotype was assessed by flow cytometry.

[7] = activin A alone, anti CD3/CD28 coated beads

Substance | CCR7 downregulation (CCR7+CXCR5+ cells) (human naïve CD4 T cells [1]) | FoxP3 expression (FoxP3+ cells) (human naïve CD4 T cells [2]) | induction of CXCR5 and PD-1 expression (human naïve CD4 T cells [3]; TGFβ with IL-12, serum free media) | induction of Bcl6+CXCR5+ cells (human naïve CD4 T cells [4]) | IL-21 production (human naïve CD4 T cells [5]; cells cultured with activin A+IL-12, PMA/Ionomycin re-stimulation) | TNFα and LTα protein expression (human naïve CD4 T cells [5]; day 3 cells, PMA/Ionomycin restimulation) | CCR7 expression (MFI) (human naïve CD4 T cells [1]) | CCR7 expression (MFI) (human naïve CD4 T cells [1]; listed as Activin A) | FoxP3 upregulation (FoxP3+CXCR5+ cells) (human naïve CD4 T cells [2]; activin A with recombinant TGFβ) | CXCR5 expression (human naïve CD4 T cells [3]; [7]) | PD-1 induction (human naïve CD4 T cells [3]; [7]) | PD-1 and CXCR5 expression (PD1+CXCR5+ cells), additive or synergistic effect (human naïve CD4 T cells [3]; activin A combined with TGFβ) | retention of CXCR5 and PD-1 expression over time (human naïve CD4 T cells [3]; activin A in combination with IL-12, monitored 0-10 days) | capacity to regulate differentiation of PD-1+CXCR5+ cells, TGFβ compared with activin A (human naïve CD4 T cells [3]; combined with IL-12) | coexpression of PD-1 and CXCR5 (PD-1+CXCR5+ cells) (human naïve CD4 T cells [3]; in combination with IL-12) | PD-1 and CXCR5 expression on activated naïve CD4 T cells (human naïve CD4 T cells [3]; serum free conditions, activin A titration) | induction of PD-1+CXCR5+ cells [6] | Bcl6 protein expression (human naïve CD4 T cells [4]; activin A with or without IL-12, FACS intranuclear staining (FIG. 8C)) | BCL6 expression (human naïve CD4 T cells [4]; activin A+IL-12, day 5 (FIG. 2F))
TGFβ | influence CCR7 downregulation | induce high FoxP3 expression; also recorded: preferentially induces FoxP3 | can synergize with IL-12 to induce CXCR5 and PD-1 expression | No detectable induction of Bcl6 |  |  |  |  |  |  |  |  |  |  |  |  |  |  | 
activin A: commercial recombinant cytokine, homodimer of the INHBA gene product (inhibin beta A) | influence CCR7 downregulation | but not activin A was found to induce high FoxP3 expression; also recorded: less potent than TGFβ in driving the generation of FoxP3^+ cells; also recorded: induced less FoxP3 expression |  | No detectable induction of Bcl6 | retained full IL-21 production potential | superior ability of CD4 T cells cultured with activin A to express TNFα and LTα proteins | decreased CCR7 expression | sufficient to decrease CCR7 expression | synergize in inducing FoxP3 upregulation | some CXCR5 expression | massive PD-1 induction | no synergy between TGFβ and activin A; also recorded: neither PD-1 nor CXCR5 expression changed when activin A and TGFβ were combined | retained | induced similar levels of CXCR5 and PD-1 expression compared to TGFβ | dramatic increase in the coexpression of PD-1 and CXCR5; also recorded: synergistic effect with IL-12 | induces both PD-1 and CXCR5 expression on activated naïve CD4 T cells in a dose dependent fashion | Potent induction of PD-1^+CXCR5^+ cells; also recorded: potent CXCR5 and PD-1 inducer for both human and non-human primate activated naïve CD4 T cells | significant expression of Bcl6, particularly when combined with IL-12 | a fraction of CD4 T cells differentiated with activin A+IL-12 increased expression of BCL6
